Assay results as given in ChEMBL document CHEMBL3779831, “Nitric Oxide Inhibitory Dimeric Sesquiterpenoids from Artemisia rupestris” (J Nat Prod, 2016).

Experiments:
[1] = Cytotoxicity against […] cells assessed as cell viability by MTT assay relative to control; assay type: cell-based, BV-2; parameters: concentration or dose not given beside the values; conditions: Mus musculus, read-out: Activity
[2] = tested on: BV-2; assay: Inhibition of LPS-induced nitric oxide production in […] cells after 24 hrs by Griess assay; assay type: functional, cell-based; conditions: Mus musculus, BV-2, 24 h

| IC50 [2] [µM] | SMILES | viability [1] [%] |
| --- | --- | --- |
| 39.8 | C=C(C(=O)O)[C@@H]1CC[C@]2(C)[C@@H](C1)C(C)=C[C@H]1[C@@H]2C[C@]1(C(=O)O)[C@@H]1CC[C@H](C)[C@@H]2CC(=O)C(C)=C2C1 | 91.1 |
| 40.6 | C=C(C(=O)O)[C@@H]1CC[C@@]2(C)C[C@@H](OC(=O)C(=C)[C@@H]3CC[C@H](C)[C@@H]4CC(=O)C(C)=C4C3)C[C@@](C)(O)[C@@H]2C1 | 97.2 |
| 30.1 | C=C(C(=O)O)[C@@H]1CC[C@@]2(C)[C@@H](OC(=O)C(=C)[C@@H]3CC[C@H](C)[C@@H]4CC(=O)C(C)=C4C3)C=C(C(C)=O)[C@@]2(O)C1 | 95.4 |
| 43.6 | C=C(C(=O)O)[C@@H]1CC[C@H](C)C2=C[C@@H]3[C@@]4(CC2(C1)[C@@]3(C)O)C(=O)O[C@]12C[C@H]4CC[C@H](C)[C@@H]1CC[C@]2(C)O | 77.3 |
| 23 | C=C(C(=O)O)[C@@H]1CC[C@H](C)C2=C(C1)[C@]1(C)C[C@H]2C[C@@]1(C(=O)O)[C@@H]1CC[C@H](C)[C@@H]2CC(=O)C(C)=C2[C@H]1O | 91.1 |
| 29.8 | C=C(C(=O)O)[C@@H]1CC[C@]2(C)C(=C(C)[C@@H](O)[C@H]3[C@@H]2C[C@]3(C(=O)O)[C@@H]2CC[C@H](C)[C@@H]3CC(=O)C(C)=C3C2)C1 | 94.6 |
| 17 | C=C(C(=O)O)[C@@H]1CC[C@H](C)[C@]23C[C@H](C(C)=C2C1)[C@]1(C3)C(=O)O[C@]23C[C@H]1CC[C@H](C)[C@@H]2CC[C@]3(C)O | 89.1 |
| 33 | C=C(C(=O)O)[C@@H]1CC[C@]2(C)[C@@H](C1)C(C)=C[C@@H](OC(=O)C(=C)[C@@H]1CC[C@H](C)[C@@H]3CC(=O)C(C)=C3C1)[C@@H]2O | 96.7 |

The remaining lines, values behind:

| SMILES | IC50 [2] [µM] | viability [1] [%] |
| --- | --- | --- |
| C=C(C(=O)O)[C@@H]1CC[C@H](C)C2=C(C1)[C@]1(C)C[C@H]2C[C@@]1(C(=O)O)[C@@H]1CC[C@H](C)[C@@H]2CC(=O)C(C)=C2C1 | 32.7 | 90.7 |
| C=C(C(=O)O)[C@@H]1CC[C@@]2(C)C=C[C@@H]3[C@@](C)(C[C@@]3(C(=O)O)[C@@H]3CC[C@H](C)[C@@H]4CC(=O)C(C)=C4C3)[C@@H]2C1 | 27.3 | 95.7 |
| C=C(C(=O)O)[C@@H]1CC[C@H](C)C2=C(C1)[C@@]1(C)C[C@@H]2[C@](C(=O)O)([C@@H]2CC[C@H](C)[C@@H]3CC(=O)C(C)=C3C2)C1 | 38.6 | 90.7 |
| C=C(C(=O)O)[C@@H]1CC[C@H](C)C23C[C@]4(C(=O)O[C@]56C[C@H]4CC[C@H](C)[C@@H]5CC[C@]6(C)O)[C@@H](C(C)=C2C1)[C@@H]3O | 71.8 | 91.8 |
| O=c1c(O)c(-c2ccc(O)c(O)c2)oc2cc(O)cc(O)c12 [QUERCETIN] | 8.7 | 99.5 |
